In article PMC3705364, “Biochemical and Electrophysiological Characterization of Two Sea Anemone Type 1 Potassium Toxins from a Geographically Distant Population of Bunodosoma caissarum” (Marine Drugs, 2013):
Where a SMILES comes first, the peptide text is derived from it. Bridges are numbered along the chain shown (N, C = ends).

Assays:
[1] = target: T1, rKV1.1 (Rattus norvegicus, UniProt P10499); assay: Two-electrode voltage-clamp, X. laevis oocytes expressing rKV1.1; format: cell-based; conditions: mean ± standard error
T1 construct: expressed in transfected cells; host or cells: Xenopus laevis oocytes injected with cRNA
Procedure: (§1) Stage V–VI of X. laevis oocytes were harvested by partial ovariectomy under anesthesia (3-aminobenzoic acid ethyl ester methanesulfonate salt, 0.5 g/L from Sigma-Aldrich Co., Saint Louis, MO, USA). The oocytes were defolliculated for 2 h by treatment with 2 mg/mL collagenase (Sigma-Aldrich Co., Saint Louis, MO, USA) in Ca^2+ free ND96 solution (in mM: 96 NaCl; 2 KCl; 1 MgCl2; 5 HEPES adjusted pH 7.4). For the expression of KV channels (KV1.1–KV1.6, KV2.1, KV3.1, KV4.2, KV4.3, hERG and the insect channel Shaker IR), the linearized plasmids were transcribed using the T7 or SP6 mMessage-mMachine transcription kit (Ambion, Austin, TX, USA). Oocytes were injected with 50 nL of cRNA at a concentration of 1 ng/nL using a microinjector (Drummond Scientific, Broomall, PA, USA). The oocytes were maintained in a ND96 solution (in mM: 96 NaCl, 2 KCl, 1.8 CaCl2, 2 MgCl2 and 5 HEPES; adjusted pH 7.4), supplemented with 50 µg/mL gentamicin sulfate.
(§2) Two-electrode voltage-clamp recordings were performed at room temperature (18–22 °C) using a Geneclamp 500 amplifier (Molecular Devices, Sunnyvale, CA, USA) controlled by a pClamp data acquisition system (Axon Instruments, Union City, CA, USA). Whole-cell currents from oocytes were recorded from 1 to 3 days after injection. Bath solution was the same ND96 solution described above. Voltage and current electrodes were filled with 3 M KCl. Resistances of both electrodes were kept between 0.8 and 1.0 ΩM. The elicited currents were filtered at 500 Hz using a four-pole lowpass Bessel filter. Leak subtraction was performed using a −P/4 protocol. KV1.1–KV1.6 and Shaker IR currents were evoked by 500 ms depolarizations to 0 mV, followed by a 500 ms pulse to −50 mV, from a holding potential of −90 mV. Current traces of hERG channels were elicited by applying a +40 mV prepulse for 2 s, followed by a step to −120 mV for 2 s. KV3.1, KV 4.2 and KV4.3 currents were elicited by 500 ms pulses to +20 mV from a holding potential of −90 mV. To assess the concentration-response relationships, data were fitted with the Hill equation: y = 100/[1 + (EC50/[toxin])h] (1) where y is the amplitude of the toxin-induced effect, EC50 is the toxin concentration at half maximal efficacy, [toxin] is the toxin concentration and h is the Hill coefficient. In order to investigate the current-voltage relationship, current traces were evoked by 10 mV depolarization steps from a holding potential of −90 mV. […]
(§3) Comparison of two sample means was made using a paired Student’s t test (p < 0.05). […] All data were analyzed using Clampfit 10.3 (Molecular Devices, Sunnyvale, CA, USA) and Origin 7.5 software (Origin Lab., Northampton, MA, USA).

[2] = target: T2, rKV1.6 (Rattus norvegicus, UniProt P17659); assay: Two-electrode voltage-clamp, X. laevis oocytes expressing rKV1.6; format: cell-based; conditions: mean ± standard error
T2 construct: expressed in transfected cells; host or cells: Xenopus laevis oocytes injected with cRNA
Procedure: as §1, §2, §3

[3] = target: T3, Shaker IR (Drosophila melanogaster, UniProt P08510, DEL6-46); assay: Two-electrode voltage-clamp, X. laevis oocytes expressing Shaker IR; format: cell-based, insect; conditions: mean ± standard error
T3 construct: expressed in transfected cells; host or cells: Xenopus laevis oocytes injected with cRNA
Procedure: as §1, §2, §3

[4] = system: KV1.1–KV1.6, KV2.1, KV3.1, KV4.2, KV4.3, hERG and Shaker IR; assay: Electrophysiological screening on 12 cloned KV channel isoforms in X. laevis oocytes; format: cell-based, rat, human, insect
Procedure: The pharmacological profile of BcsTx-1 and -2 were determined on a wide range of twelve KV channels (rKV1.1, rKV1.2, hKV1.3, rKV1.4, rKV1.5, rKV1.6, rKV2.1, rKV3.1, rKV4.2, rKV4.3, hERG and the insect channel Shaker IR; r: rat and h: human). Channels were expressed in X. laevis oocytes, and their currents were recorded by using two-electrode voltage-clamp technique. BcsTx1 (0.5 µM) inhibited rKv1.1, rKv1.2, rKv1.3, rKv1.6 and Shaker IR channels with 44% ± 2%, 100%, 100%, 88% ± 3% and 64% ± 4%, respectively (Figure 6). […] Type 1 toxins, such as BgK and ShK, have been extensively characterized. […] Some of the other type 1 toxins were indirectly assayed by competitive inhibition of the binding of ^125I-dendrotoxins, allowing the conclusion that they will show activity on KV1.1, KV1.2 and/or KV1.6, since dendrotoxins only block the current of these KV channels. […] Thus, it is worth mentioning that our work represents the first electrophysiological characterization of type 1 sea anemone toxin activity on cloned Shaker IR insect channel.
as §1
Two-electrode voltage-clamp recordings were performed at room temperature (18–22 °C) using a Geneclamp 500 amplifier (Molecular Devices, Sunnyvale, CA, USA) controlled by a pClamp data acquisition system (Axon Instruments, Union City, CA, USA). Whole-cell currents from oocytes were recorded from 1 to 3 days after injection. Bath solution was the same ND96 solution described above. Voltage and current electrodes were filled with 3 M KCl. Resistances of both electrodes were kept between 0.8 and 1.0 ΩM. The elicited currents were filtered at 500 Hz using a four-pole lowpass Bessel filter. Leak subtraction was performed using a −P/4 protocol. KV1.1–KV1.6 and Shaker IR currents were evoked by 500 ms depolarizations to 0 mV, followed by a 500 ms pulse to −50 mV, from a holding potential of −90 mV. Current traces of hERG channels were elicited by applying a +40 mV prepulse for 2 s, followed by a step to −120 mV for 2 s. KV3.1, KV 4.2 and KV4.3 currents were elicited by 500 ms pulses to +20 mV from a holding potential of −90 mV. To assess the concentration-response relationships, data were fitted with the Hill equation: y = 100/[1 + (EC50/[toxin])h] (1) where y is the amplitude of the toxin-induced effect, EC50 is the toxin concentration at half maximal efficacy, [toxin] is the toxin concentration and h is the Hill coefficient. In order to investigate the current-voltage relationship, current traces were evoked by 10 mV depolarization steps from a holding potential of −90 mV. The activation curves were fitted with a Boltzmann relationship of the form: 1/(1 + e^[−(V − V^1/2)/^S^]) (2) where V1/2 is the voltage for half-maximal activation and s is the slope factor. The activation kinetics were obtained by mono-exponential fits to the raw current traces.

[5] = target: hKV1.3 (Homo sapiens, UniProt P22001); assay: Two-electrode voltage-clamp, X. laevis oocytes expressing hKV1.3; format: cell-based; parameters: expressed in transfected cells; host or cells: Xenopus laevis oocytes injected with cRNA
Procedure: as §1, §2, §3

[6] = TEVC, 18–22 °C, ND96 pH 7.4, 500 ms depolarizations to 0 mV from −90 mV, Hill fit, n ≥ 3

T1 sequence (P10499 whole entry): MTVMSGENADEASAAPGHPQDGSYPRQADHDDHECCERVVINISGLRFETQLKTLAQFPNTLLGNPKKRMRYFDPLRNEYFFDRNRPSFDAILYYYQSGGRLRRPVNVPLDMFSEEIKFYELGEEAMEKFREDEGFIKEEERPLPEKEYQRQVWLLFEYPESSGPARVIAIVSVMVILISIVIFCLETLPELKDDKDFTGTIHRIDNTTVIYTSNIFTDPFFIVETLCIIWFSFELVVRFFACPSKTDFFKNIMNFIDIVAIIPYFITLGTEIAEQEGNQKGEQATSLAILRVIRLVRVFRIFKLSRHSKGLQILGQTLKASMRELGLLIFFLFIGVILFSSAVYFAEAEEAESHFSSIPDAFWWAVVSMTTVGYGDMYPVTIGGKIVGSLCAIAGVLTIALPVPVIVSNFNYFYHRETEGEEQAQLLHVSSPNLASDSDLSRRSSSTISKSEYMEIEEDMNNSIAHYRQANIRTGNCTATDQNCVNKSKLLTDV
T3 sequence (P08510 with tags, fused parts or gaps DEL6-46): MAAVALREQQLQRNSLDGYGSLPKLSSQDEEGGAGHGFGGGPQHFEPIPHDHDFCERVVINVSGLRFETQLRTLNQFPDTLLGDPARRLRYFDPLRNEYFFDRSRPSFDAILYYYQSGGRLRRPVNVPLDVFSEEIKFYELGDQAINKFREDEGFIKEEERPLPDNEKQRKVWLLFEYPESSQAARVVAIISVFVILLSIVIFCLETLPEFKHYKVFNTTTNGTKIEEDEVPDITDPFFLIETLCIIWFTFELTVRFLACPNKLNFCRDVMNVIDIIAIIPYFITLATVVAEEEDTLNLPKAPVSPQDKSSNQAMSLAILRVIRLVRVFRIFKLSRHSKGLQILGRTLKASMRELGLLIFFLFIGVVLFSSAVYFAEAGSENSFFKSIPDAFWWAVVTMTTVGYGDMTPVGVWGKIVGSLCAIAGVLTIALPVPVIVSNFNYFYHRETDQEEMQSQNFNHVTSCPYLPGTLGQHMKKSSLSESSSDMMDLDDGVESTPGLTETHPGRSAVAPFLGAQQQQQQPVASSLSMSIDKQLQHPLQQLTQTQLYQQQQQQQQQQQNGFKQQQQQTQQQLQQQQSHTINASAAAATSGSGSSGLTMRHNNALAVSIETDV
Chain of hKV1.3 (P22001 whole entry): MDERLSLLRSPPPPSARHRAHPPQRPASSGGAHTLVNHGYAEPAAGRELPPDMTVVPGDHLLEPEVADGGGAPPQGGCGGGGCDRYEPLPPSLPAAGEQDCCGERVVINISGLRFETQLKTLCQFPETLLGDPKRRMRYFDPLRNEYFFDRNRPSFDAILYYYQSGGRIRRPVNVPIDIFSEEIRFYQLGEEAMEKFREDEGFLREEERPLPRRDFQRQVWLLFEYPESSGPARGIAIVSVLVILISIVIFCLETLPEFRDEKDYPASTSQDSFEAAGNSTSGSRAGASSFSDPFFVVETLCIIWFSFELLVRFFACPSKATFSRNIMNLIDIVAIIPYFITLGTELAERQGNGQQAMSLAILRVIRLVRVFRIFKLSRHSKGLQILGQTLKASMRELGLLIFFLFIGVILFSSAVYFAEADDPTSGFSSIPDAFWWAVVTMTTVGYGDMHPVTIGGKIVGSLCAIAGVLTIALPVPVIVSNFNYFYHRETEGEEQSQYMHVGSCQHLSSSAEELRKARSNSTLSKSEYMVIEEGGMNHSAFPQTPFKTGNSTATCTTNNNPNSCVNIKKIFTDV
T2 sequence (P17659 whole entry): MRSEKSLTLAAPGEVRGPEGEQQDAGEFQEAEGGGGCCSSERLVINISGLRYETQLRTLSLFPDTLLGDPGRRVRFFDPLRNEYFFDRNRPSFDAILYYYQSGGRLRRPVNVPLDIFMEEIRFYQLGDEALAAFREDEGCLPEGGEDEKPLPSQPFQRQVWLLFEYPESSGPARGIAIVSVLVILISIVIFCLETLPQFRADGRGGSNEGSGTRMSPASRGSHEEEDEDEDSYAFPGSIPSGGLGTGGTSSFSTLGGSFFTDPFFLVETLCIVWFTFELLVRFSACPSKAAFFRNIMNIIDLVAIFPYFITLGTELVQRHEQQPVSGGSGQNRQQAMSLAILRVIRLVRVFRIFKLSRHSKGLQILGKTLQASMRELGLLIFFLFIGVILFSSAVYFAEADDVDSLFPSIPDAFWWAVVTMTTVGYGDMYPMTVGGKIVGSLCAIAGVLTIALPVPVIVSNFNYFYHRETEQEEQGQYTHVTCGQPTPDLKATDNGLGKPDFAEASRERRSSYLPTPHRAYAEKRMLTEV

Structure (SMILES): CC(C)C[C@@H]1NC(=O)[C@H](CCCCN)NC(=O)[C@H](C)NC(=O)[C@H](Cc2c[nH]cn2)NC(=O)[C@H](CCC(N)=O)NC(=O)[C@@H]2CSSC[C@@H]3NC(=O)[C@H](CC(N)=O)NC(=O)[C@H](C)NC(=O)[C@H](CCCNC(=N)N)NC(=O)[C@H](Cc4ccc(O)cc4)NC(=O)[C@H](CCCCN)NC(=O)[C@H](CCC(N)=O)NC(=O)[C@H](CO)NC(=O)[C@H](CC(N)=O)NC(=O)[C@H](CCCCN)NC(=O)[C@H](CSSC[C@H](NC(=O)[C@H]([C@@H](C)O)NC(=O)[C@H](CCCCN)NC(=O)[C@H](C)NC3=O)C(=O)NCC(=O)N3CCC[C@H]3C(=O)N[C@H](C(=O)O)CSSC[C@H](NC(=O)[C@H](C)N)C(=O)N[C@@H](CCCCN)C(=O)N[C@@H](CC(=O)O)C(=O)NCC(=O)N[C@@H](Cc3ccccc3)C(=O)N3CCC[C@H]3C(=O)N[C@@H]([C@@H](C)O)C(=O)N[C@@H](C)C(=O)N[C@@H]([C@@H](C)O)C(=O)N2)NC(=O)[C@H](CC(N)=O)NC(=O)CNC(=O)[C@H](C(C)C)NC1=O [BcsTx2] (H-ACKDGFPTATCQHAKLVGNCKNSQKYRANCAKTCGPC-OH; disulfide 2-37, 11-30, 20-34; C-terminus assumed)
- inhibition at 3 µM ([1]; 3 µM, n ≥ 3, read-out: inhibition of rKV1.1 current): 96%
- IC50 [1, 6]: 14.4 ± 2.61 nM
- inhibition at 3 µM ([2]; 3 µM, n ≥ 3, read-out: inhibition of rKV1.6 current): 98%
- IC50 [2, 6]: 7.76 ± 1.9 nM
- inhibition at 3 µM ([3]; 3 µM, n ≥ 3, read-out: inhibition of Shaker IR current): 94%
- IC50 [3, 6]: 49.1 ± 3.44 nM
- selectivity among KV channels (in words) ([4]; 3 µM, 12 KV isoforms): selectively blocks Shaker channels subfamily
- potency class on KV channels (in words) ([4]; summary of IC50 values, compared with BgK and type 2 toxins): within the nanomolar range
- affinity/potency order among KV channels (in words) ([4]; summary of the electrophysiological characterization): potently blocked rKv1.6 over hKv1.3, rKv1.1, Shaker IR and rKv1.2
- inhibition at 3 µM ([5]; 3 µM, n ≥ 3, read-out: inhibition of hKV1.3 current): 100%
- IC50 ([5]; TEVC, 18–22 °C, ND96 pH 7.4, 500 ms depolarizations to 0 mV from −90 mV, Hill fit, mean ± standard error, n ≥ 3): 13.1 ± 3.29 nM
